Data on 16 molecules can be found in US12030904B2 (priority 2020, dated 2024).

SMILES strings stand for the structures. Where two headings read alike, the source gives them in different places.

Series [1] relates to Recombinant Respiratory Syncytial virus strain A2 containing the firefly luciferase reporter (RSV-Fluc). Briefly: microbe, parasite or virus in culture. It is filed as cell-based. As to conditions: human respiratory syncytial virus, NHBE.
Series [2] concerns SARS-CoV-2. Put plainly: microbe, parasite or virus in culture. It is filed as cell-based.
Series [3] in a line: MT4 cytotoxicity (CC50). Conditions: human, MT4 cells.
The mark [4] stands for this setting: Severe acute respiratory syndrome coronavirus 2, read-out: SARS EC50.
[5] abbreviates: 72 h, read-out: RSV-Fluc EC50 (NHBE), NHBE cells, three days, Table 2.

By EC50 is commonly meant the concentration at which the effect is half-maximal. A word on the CC50: it is the concentration at which the toxic effect on the cells reaches its halfway point. Lower therefore signals harm at low concentration. In the case of `CCCCCCCCCCCCCCCCCOC[C@H](COP(=O)(O)OC[C@H]1O[C@@](C#N)(c2ccc3c(N)ncnn23)[C@H](O)[C@@H]1O)OCc1ccccc1` [Example 6, ((2R,3S,4R,5R)-5-(4-aminopyrrolo[2,1-f][1,2,4]triazin-7-yl)-5-cyano-3,4-dihydroxytetrahydrofuran-2-yl)methyl ((R)-2-(benzyloxy)-3-(heptadecyloxy)propyl) hydrogen phosphate], the concentration for a half-maximal effect (EC50) worked out at 80 nM in series [1] (72 h, read-out: RSV-Fluc EC50 (NHBE), NHBE cells, three days, Table 1) and 950 nM in series [2] (Severe acute respiratory syndrome coronavirus 2, 48 h, read-out: SARS-CoV-2 EC50). Further, the 50% cytotoxic concentration (CC50) in series [3] (MT4 CC50, Table 1a) is 4150 nM.
Take `CCCCCCCCCCCCCCCCCCOC[C@H](COP(=O)(O)OC[C@H]1O[C@@](C#N)(c2ccc3c(N)ncnn23)[C@H](O)[C@@H]1O)OCc1ccc(C#N)cn1` [Example 124, [(2R,3S,4R,5R)-5-(4-Aminopyrrolo[2,1-f][1,2,4]triazin-7-yl)-5-cyano-3,4-dihydroxy-tetrahydrofuran-2-yl]methyl [(2R)-2-[(5-cyano-2-pyridyl)methoxy]-3-octadecoxy-propyl] hydrogen phosphate]: the concentration for a half-maximal effect (EC50) in series [1] (read-out: RSV EC50, Table 4) stood at 27 nM; in series [2] (setting [4]), 200 nM. In series [3] (MT4 CC50, Table 4), this molecule had a CC50 of 703 nM.
Taken in the same sequence, the figures for `CCCCCCCCCCCCCCCCCCOC[C@H](COP(=O)(O)OC[C@H]1O[C@@](C#N)(c2ccc3c(N)ncnn23)[C@H](O)[C@@H]1O)Oc1ccc(C#N)nn1` [Example 80, ((2R,3S,4R,5R)-5-(4-aminopyrrolo[2,1-f][1,2,4]triazin-7-yl)-5-cyano-3,4-dihydroxytetrahydrofuran-2-yl)methyl ((R)-2-((6-cyanopyridazin-3-yl)oxy)-3-(octadecyloxy)propyl) hydrogen phosphate] were 13 nM, 54 nM and 344 nM.
On to `CCCCCCCCCCCCCCCCCOCCCOP(=O)(O)OC[C@H]1O[C@@](C#N)(c2ccc3c(N)ncnn23)[C@H](O)[C@@H]1O` [Example 55, ((2R,3S,4R,5R)-5-(4-aminopyrrolo[2,1-f][1,2,4]triazin-7-yl)-5-cyano-3,4-dihydroxytetrahydrofuran-2-yl)methyl (3-(heptadecyloxy)propyl) hydrogen phosphate], for which the concentration giving a half-maximal response (EC50) in series [1] (read-out: RSV EC50, Table 2a) is 86 nM; in series [2] (setting [4]) it was 9420 nM. The molecule further showed a CC50 in series [3] (MT4 CC50, Table 2a) of 29900 nM.
As to `CCCCCCCCCCCCCCCCCCOC[C@H](COP(=O)(O)OC[C@H]1O[C@@](C#N)(c2ccc3c(N)ncnn23)[C@H](O)[C@@H]1O)Oc1ccc(C#N)cn1` [Example 76, ((2R,3S,4R,5R)-5-(4-aminopyrrolo[2,1-f][1,2,4]triazin-7-yl)-5-cyano-3,4-dihydroxytetrahydrofuran-2-yl)methyl ((R)-2-((5-cyanopyridin-2-yl)oxy)-3-(octadecyloxy)propyl) hydrogen phosphate], the half-maximal effective concentration (EC50) came to 31 nM in series [1] (read-out: RSV EC50, Table 4) and 48 nM in series [2] (setting [4]). Also, in series [3] (MT4 CC50, Table 4), the midpoint of cytotoxicity, the CC50, lay at 295 nM.
As to `CCCCCCCCCCCCCCCCOC[C@H](COP(=O)(O)OC[C@H]1O[C@@](C#N)(c2ccc3c(N)ncnn23)[C@H](O)[C@@H]1O)OCc1ccc(C#N)cc1F` [Example 112, [(2R,3S,4R,5R)-5-(4-Aminopyrrolo[2,1-f][1,2,4]triazin-7-yl)-5-cyano-3,4-dihydroxy-tetrahydrofuran-2-yl]methyl [(2R)-2-[(4-cyano-2-fluoro-phenyl)methoxy]-3-hexadecoxy-propyl] hydrogen phosphate], the concentration giving a half-maximal response (EC50) turned out to be 63 nM in series [1] (read-out: RSV EC50, Table 4) and 130 nM in series [2] (setting [4]). The same molecule returned a half-maximal cytotoxic concentration (CC50) in series [3] (MT4 CC50, Table 4) of 1940 nM.
Regarding `CCCCCCCCCCCCCCCCCCOC[C@H](COP(=O)(O)OC[C@H]1O[C@@](C#N)(c2ccc3c(N)ncnn23)[C@H](O)[C@@H]1O)n1cnc(C#N)c1` [Example 79, ((2R,3S,4R,5R)-5-(4-aminopyrrolo[2,1-f][1,2,4]triazin-7-yl)-5-cyano-3,4-dihydroxytetrahydrofuran-2-yl)methyl ((R)-2-(4-cyano-1H-imidazol-1-yl)-3-(octadecyloxy)propyl) hydrogen phosphate], the EC50 in series [1] (read-out: RSV EC50, Table 4) amounted to 103 nM; in series [2] (setting [4]), 330 nM. This molecule showed a cytotoxic concentration (CC50) in series [3] (MT4 CC50, Table 4) of 10100 nM.
Turning to `CCCCCCCCCCCCCCCCCCOC[C@H](COP(=O)(O)OC[C@H]1O[C@@](C#N)(c2ccc3c(N)ncnn23)[C@H](O)[C@@H]1O)OCc1cc(F)cc(C(F)(F)F)c1` [Example 19, ((2R,3S,4R,5R)-5-(4-aminopyrrolo[2,1-f][1,2,4]triazin-7-yl)-5-cyano-3,4-dihydroxytetrahydrofuran-2-yl)methyl ((R)-2-((3-fluoro-5-(trifluoromethyl)benzyl)oxy)-3-(octadecyloxy)propyl) hydrogen phosphate], the EC50 in series [1] (setting [5]) is 180 nM; in series [1] (read-out: RSV EC50, Table 2a) it was 182 nM; in series [2] (setting [4]) it was 2800 nM. This molecule also came in with a 50% cytotoxic concentration (CC50) in series [3] (MT4 CC50, Table 2a) of 541 nM.
Regarding `CCCCCCCCCCCCCCCCCCOC[C@H](COP(=O)(O)OC[C@H]1O[C@@](C#N)(c2ccc3c(N)ncnn23)[C@H](O)[C@@H]1O)Oc1ccc(C#N)c(OC)c1` [Example 74, ((2R,3S,4R,5R)-5-(4-aminopyrrolo[2,1-f][1,2,4]triazin-7-yl)-5-cyano-3,4-dihydroxytetrahydrofuran-2-yl)methyl ((R)-2-(4-cyano-3-methoxyphenoxy)-3-(octadecyloxy)propyl) hydrogen phosphate], the EC50 in series [1] (read-out: RSV EC50, Table 4) turned out to be 10 nM; in series [2] (setting [4]), 31 nM. This molecule also came in with a 50% cytotoxic concentration (CC50) in series [3] (MT4 CC50, Table 4) of 196 nM.
As for `CCCCCCCCCCCCCCCCCCOC[C@H](COP(=O)(O)OC[C@H]1O[C@@](C#N)(c2ccc3c(N)ncnn23)[C@H](O)[C@@H]1O)OCc1ccc(C(F)(F)F)nc1` [Example 123, [(2R,3S,4R,5R)-5-(4-Aminopyrrolo[2,1-f][1,2,4]triazin-7-yl)-5-cyano-3,4-dihydroxy-tetrahydrofuran-2-yl]methyl [(2R)-3-octadecoxy-2-[[6-(trifluoromethyl)-3-pyridyl]methoxy]propyl] hydrogen phosphate], the concentration giving a half-maximal response (EC50) in series [1] (read-out: RSV EC50, Table 4) was found to be 55 nM; in series [2] (setting [4]), 340 nM. Moreover, the CC50 in series [3] (MT4 CC50, Table 4) turned out to be 1040 nM.
`CCCCCCCC/C=C/CCCCCCCCOC[C@H](COP(=O)(O)OC[C@H]1O[C@@](C#N)(c2ccc3c(N)ncnn23)[C@H](O)[C@@H]1O)OCc1cc(F)cc(C#N)c1` [Example 126, ((2R,3S,4R,5R)-5-(4-aminopyrrolo[2,1-f][1,2,4]triazin-7-yl)-5-cyano-3,4-dihydroxytetrahydrofuran-2-yl)methyl ((R)-2-((3-cyano-5-fluorobenzyl)oxy)-3-(((E)-octadec-9-en-1-yl)oxy)propyl) hydrogen phosphate]: the EC50 worked out at 30 nM in series [1] (read-out: RSV EC50, Table 4) and 140 nM in series [2] (setting [4]). Moreover, it took 366 nM to reach half-maximal cytotoxicity in series [3] (MT4 CC50, Table 4) (CC50).
Take `CCCCCCCCCCCCCCCCCCOC[C@H](COP(=O)(O)OC[C@H]1O[C@@](C#N)(c2ccc3c(N)ncnn23)[C@H](O)[C@@H]1O)OCc1ccc(C#N)c(OC)c1` [Example 54, ((2R,3S,4R,5R)-5-(4-Aminopyrrolo[2,1-f][1,2,4]triazin-7-yl)-5-cyano-3,4-dihydroxytetrahydrofuran-2-yl)methyl ((R)-2-((4-cyano-3-methoxybenzyl)oxy)-3-(octadecyloxy)propyl) hydrogen phosphate]: the half-maximal effective concentration (EC50) worked out at 19 nM in series [1] (read-out: RSV EC50, Table 2a) and 1630 nM in series [2] (setting [4]). In series [3] (MT4 CC50, Table 2a), the CC50 was determined as 289 nM.
`CCCCCCCCCCCCCCCCCCOC[C@H](COP(=O)(O)OC[C@H]1O[C@@](C#N)(c2ccc3c(N)ncnn23)[C@H](O)[C@@H]1O)OCc1ccc2c(c1)CCC2` [Example 52, ((2R,3S,4R,5R)-5-(4-aminopyrrolo[2,1-f][1,2,4]triazin-7-yl)-5-cyano-3,4-dihydroxytetrahydrofuran-2-yl)methyl ((R)-2-((2,3-dihydro-1H-inden-5-yl)methoxy)-3-(octadecyloxy)propyl) hydrogen phosphate]: the concentration for a half-maximal effect (EC50) came out at 125 nM in series [1] (read-out: RSV EC50, Table 2a) and 487 nM in series [2] (setting [4]). Moreover, in series [3] (MT4 CC50, Table 2a), the CC50 stood at 17900 nM.
For `CCCCCCCCCCCCCCCCCCOC[C@H](COP(=O)(O)OC[C@H]1O[C@@](C#N)(c2ccc3c(N)ncnn23)[C@H](O)[C@@H]1O)OCc1ccc(Cl)cc1Cl` [Example 62, ((2R,3S,4R,5R)-5-(4-aminopyrrolo[2,1-f][1,2,4]triazin-7-yl)-5-cyano-3,4-dihydroxytetrahydrofuran-2-yl)methyl ((R)-2-((2,4-dichlorobenzyl)oxy)-3-(octadecyloxy)propyl) hydrogen phosphate], the EC50 in series [1] (setting [5]) was 220 nM; in series [1] (read-out: RSV EC50, Table 2a), 217 nM; in series [2] (setting [4]), 8620 nM. In addition, the midpoint of cytotoxicity in series [3] (MT4 CC50, Table 2a), the CC50, lay at 12600 nM.
`CCCCCCCCCCCCCCCCCCOC[C@H](COP(=O)(O)OC[C@H]1O[C@@](C#N)(c2ccc3c(N)ncnn23)[C@H](O)[C@@H]1O)OCc1c(F)cccc1F` [Example 43, ((2R,3S,4R,5R)-5-(4-aminopyrrolo[2,1-f][1,2,4]triazin-7-yl)-5-cyano-3,4-dihydroxytetrahydrofuran-2-yl)methyl ((R)-2-((2,6-difluorobenzyl)oxy)-3-(octadecyloxy)propyl) hydrogen phosphate]: the EC50 in series [1] (setting [5]) amounted to 68 nM; in series [1] (read-out: RSV EC50, Table 2a), 68 nM; in series [2] (setting [4]), 139 nM. For the same molecule, the midpoint of cytotoxicity in series [3] (MT4 CC50, Table 2a), the CC50, lay at 1470 nM.
Consider `CCCCCCCCCCCCCCCCCOCCCCOP(=O)(O)OC[C@H]1O[C@@](C#N)(c2ccc3c(N)ncnn23)[C@H](O)[C@@H]1O` [Example 121, [(2R,3S,4R,5R)-5-(4-Aminopyrrolo[2,1-f][1,2,4]triazin-7-yl)-5-cyano-3,4-dihydroxy-tetrahydrofuran-2-yl]methyl 4-heptadecoxybutyl hydrogen phosphate], for which the EC50 in series [1] (read-out: RSV EC50, Table 4) came out at 262 nM; in series [2] (setting [4]), 8900 nM. Further, in series [3] (MT4 CC50, Table 4), the 50% cytotoxic concentration (CC50) came out at 10400 nM.
